Reference: PubChem BioAssay AID2060888 (Molecular Pharmacology Branch, DTP, NCI, 2025)

System: 695427-040-R-J1-PDC complex spheroid viability
Assay: Anticancer human tumor 695427-040-R-J1-PDC patient-derived colon adenocarcinoma cell line growth inhibition [RAS]
Conditions: for IC50: curve of first compound; for viability, T/C: stronger effect = lower value
How it was run: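 Tumour cells grown as complex spheroids with HUVEC endothelial cells and mesenchymal stem cells, treated with RAS pathway inhibitor combinations. Each agent spans half-log steps from near clinical Cmax, or 10 microM where Cmax is unknown.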

[1] = second compound 0.00316 µM, first compound 0.0316 µM
[2] = second compound 0.00316 µM, first compound 0.1 µM
[3] = second compound 0.00316 µM, first compound 0.316 µM
[4] = second compound 0.00316 µM, first compound 1 µM
[5] = second compound 0.00316 µM, first compound 3.16 µM
[6] = second compound 0.00316 µM, first compound 10 µM
[7] = second compound 0.01 µM, first compound 0.0316 µM
[8] = second compound 0.01 µM, first compound 0.1 µM
[9] = second compound 0.01 µM, first compound 0.316 µM
[10] = second compound 0.01 µM, first compound 1 µM
[11] = second compound 0.01 µM, first compound 3.16 µM
[12] = second compound 0.01 µM, first compound 10 µM
[13] = second compound 0.0316 µM, first compound 0.0316 µM
[14] = second compound 0.0316 µM, first compound 0.1 µM
[15] = second compound 0.0316 µM, first compound 0.316 µM
[16] = second compound 0.0316 µM, first compound 1 µM
[17] = second compound 0.0316 µM, first compound 3.16 µM
[18] = second compound 0.0316 µM, first compound 10 µM
[19] = second compound 0.1 µM, first compound 0.0316 µM
[20] = second compound 0.1 µM, first compound 0.1 µM
[21] = second compound 0.1 µM, first compound 0.316 µM
[22] = second compound 0.1 µM, first compound 1 µM
[23] = second compound 0.1 µM, first compound 3.16 µM
[24] = second compound 0.1 µM, first compound 10 µM
[25] = second compound 0.316 µM, first compound 0.0316 µM
[26] = second compound 0.316 µM, first compound 0.1 µM
[27] = second compound 0.316 µM, first compound 0.316 µM
[28] = second compound 0.316 µM, first compound 1 µM
[29] = second compound 0.316 µM, first compound 3.16 µM
[30] = second compound 0.316 µM, first compound 10 µM
[31] = second compound 1 µM, first compound 0.0316 µM
[32] = second compound 1 µM, first compound 0.1 µM
[33] = second compound 1 µM, first compound 0.316 µM
[34] = second compound 1 µM, first compound 1 µM
[35] = second compound 1 µM, first compound 3.16 µM
[36] = second compound 1 µM, first compound 10 µM
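Further: viability read after seven days of drug exposure.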
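Wherever viability, T/C is given: 100% = DMSO vehicle control viability.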

## CC(=O)OC12COC1CC(O)C1(C)C(=O)C(O)C3=C(C)C(OC(=O)C(O)C(NC(=O)OC(C)(C)C)c4ccccc4)CC(O)(C(OC(=O)c4ccccc4)C21)C3(C)C (stereo unspecified) + C=CC(=O)N1CCN(c2nc(OCC3CCCN3C)nc3c(F)c(-c4nc(N)cc(C)c4C(F)(F)F)c(Cl)cc23)C(C)C1
Second compound 0.00316 µM
  IC50: > 10 µM
Second compound 0.01 µM
  IC50: > 10 µM
Second compound 0.0316 µM
  IC50: > 10 µM
Second compound 0.1 µM
  IC50: > 10 µM
Second compound 0.316 µM
  IC50: > 10 µM
Second compound 1 µM
  IC50: > 10 µM
[1]
  viability, T/C: 67.3%
[2]
  viability, T/C: 69%
[3]
  viability, T/C: 74.2%
[4]
  viability, T/C: 78.9%
[5]
  viability, T/C: 91.5%
[6]
  viability, T/C: 98%
[7]
  viability, T/C: 71.8%
[8]
  viability, T/C: 66.8%
[9]
  viability, T/C: 71%
[10]
  viability, T/C: 79.7%
[11]
  viability, T/C: 93%
[12]
  viability, T/C: 89.3%
[13]
  viability, T/C: 71%
[14]
  viability, T/C: 72.8%
[15]
  viability, T/C: 77.2%
[16]
  viability, T/C: 78%
[17]
  viability, T/C: 83.7%
[18]
  viability, T/C: 89.5%
[19]
  viability, T/C: 70.6%
[20]
  viability, T/C: 71.3%
[21]
  viability, T/C: 74%
[22]
  viability, T/C: 76.2%
[23]
  viability, T/C: 93.6%
[24]
  viability, T/C: 96.9%
[25]
  viability, T/C: 75.2%
[26]
  viability, T/C: 73.6%
[27]
  viability, T/C: 83.8%
[28]
  viability, T/C: 75%
[29]
  viability, T/C: 93.1%
[30]
  viability, T/C: 95.7%
[31]
  viability, T/C: 76.4%
[32]
  viability, T/C: 68.5%
[33]
  viability, T/C: 77.3%
[34]
  viability, T/C: 83.4%
[35]
  viability, T/C: 88.7%
[36]
  viability, T/C: 91.8%

## NC1c2ccccc2OC12CCN(c1cnc3c(N4CCCc5ncccc54)n[nH]c3n1)CC2 (stereo unspecified) + C=CC(=O)N1CCN(c2nc(OCC3CCCN3C)nc3c(F)c(-c4nc(N)cc(C)c4C(F)(F)F)c(Cl)cc23)C(C)C1
Second compound 0.00316 µM
  IC50: 4.31 µM
Second compound 0.01 µM
  IC50: 3.21 µM
Second compound 0.0316 µM
  IC50: 2.88 µM
Second compound 0.1 µM
  IC50: 2.16 µM
Second compound 0.316 µM
  IC50: 3.37 µM
Second compound 1 µM
  IC50: 1.06 µM
[1]
  viability, T/C: 72.3%
[2]
  viability, T/C: 68.1%
[3]
  viability, T/C: 63.8%
[4]
  viability, T/C: 57.2%
[5]
  viability, T/C: 52.4%
[6]
  viability, T/C: 44.9%
[7]
  viability, T/C: 78.6%
[8]
  viability, T/C: 73.3%
[9]
  viability, T/C: 63.3%
[10]
  viability, T/C: 59%
[11]
  viability, T/C: 51.6%
[12]
  viability, T/C: 41%
[13]
  viability, T/C: 80.1%
[14]
  viability, T/C: 73.6%
[15]
  viability, T/C: 71.4%
[16]
  viability, T/C: 56.8%
[17]
  viability, T/C: 50.4%
[18]
  viability, T/C: 43.1%
[19]
  viability, T/C: 78.2%
[20]
  viability, T/C: 74.8%
[21]
  viability, T/C: 60.1%
[22]
  viability, T/C: 56.9%
[23]
  viability, T/C: 46.6%
[24]
  viability, T/C: 41.9%
[25]
  viability, T/C: 74.6%
[26]
  viability, T/C: 68.4%
[27]
  viability, T/C: 64.8%
[28]
  viability, T/C: 60.2%
[29]
  viability, T/C: 49.6%
[30]
  viability, T/C: 41.2%
[31]
  viability, T/C: 70.6%
[32]
  viability, T/C: 62.2%
[33]
  viability, T/C: 53.6%
[34]
  viability, T/C: 52%
[35]
  viability, T/C: 47.2%
[36]
  viability, T/C: 36%

## Nc1ccn(C2OC(CO)C(O)C2(F)F)c(=O)n1 (stereo unspecified) + C=CC(=O)N1CCN(c2nc(OCC3CCCN3C)nc3c(F)c(-c4nc(N)cc(C)c4C(F)(F)F)c(Cl)cc23)C(C)C1
Second compound 0.00316 µM
  IC50: > 1 µM
Second compound 0.01 µM
  IC50: > 1 µM
Second compound 0.0316 µM
  IC50: > 1 µM
Second compound 0.1 µM
  IC50: > 1 µM
Second compound 0.316 µM
  IC50: > 1 µM
Second compound 1 µM
  IC50: > 1 µM
Second compound 0.00316 µM, first compound 0.00316 µM
  viability, T/C: 93.3%
Second compound 0.00316 µM, first compound 0.01 µM
  viability, T/C: 88.1%
[1]
  viability, T/C: 77.5%
[2]
  viability, T/C: 84.9%
[3]
  viability, T/C: 72.1%
[4]
  viability, T/C: 69.6%
Second compound 0.01 µM, first compound 0.00316 µM
  viability, T/C: 94.4%
Second compound 0.01 µM, first compound 0.01 µM
  viability, T/C: 87.2%
[7]
  viability, T/C: 84.3%
[8]
  viability, T/C: 74.3%
[9]
  viability, T/C: 76.2%
[10]
  viability, T/C: 69.5%
Second compound 0.0316 µM, first compound 0.00316 µM
  viability, T/C: 92.9%
Second compound 0.0316 µM, first compound 0.01 µM
  viability, T/C: 80.5%
[13]
  viability, T/C: 77.9%
[14]
  viability, T/C: 73.8%
[15]
  viability, T/C: 76.5%
[16]
  viability, T/C: 70.8%
Second compound 0.1 µM, first compound 0.00316 µM
  viability, T/C: 96.9%
Second compound 0.1 µM, first compound 0.01 µM
  viability, T/C: 78.4%
[19]
  viability, T/C: 77.8%
[20]
  viability, T/C: 80.2%
[21]
  viability, T/C: 74.2%
[22]
  viability, T/C: 72.9%
Second compound 0.316 µM, first compound 0.00316 µM
  viability, T/C: 93.8%
Second compound 0.316 µM, first compound 0.01 µM
  viability, T/C: 84.2%
[25]
  viability, T/C: 91.3%
[26]
  viability, T/C: 77.5%
[27]
  viability, T/C: 80.4%
[28]
  viability, T/C: 69.7%
Second compound 1 µM, first compound 0.00316 µM
  viability, T/C: 92.7%
Second compound 1 µM, first compound 0.01 µM
  viability, T/C: 85.5%
[31]
  viability, T/C: 77.9%
[32]
  viability, T/C: 81.5%
[33]
  viability, T/C: 86.9%
[34]
  viability, T/C: 69.7%
